From patent publication US20230193181A1, “3D Tissue Printing” (Oxford University Innovation Limited, priority 2020, published 2023)
“Also recorded” adds a separate entry of the source.

Experiments:
[1] = reported in clinic; cited from earlier work
[2] = tested on: printed neural tissue arrays (astrocytes and RFP-NPCs in Matrigel); assay: Neurotoxicity test using printed neural tissue arrays
Protocol: FIG. 20a, The experimental process of drug testing using printed neural tissue arrays. From left to right: 2D cultured astrocytes and RFP-NPCs were harvested and added to Matrigel for the preparation of bio-ink with a cell density ratio of 3:1 (astrocytes vs RFP-NPCs) and total cell density of 4×10^7 mL^−1. The prepared bio-ink were printed into droplet arrays with individual droplet size around 100 μm. On the next day, cancer chemotherapy drugs were added to the culture medium. The neurotoxicity of the drugs were assessed after a further 24 hrs. FIG. 20b, Fluorescent images of neural tissues treated with DMSO (control) and cancer chemotherapy drugs with different reported neurotoxicity risks: 5-Fluorouracil (minor), Carboplatin (moderate), Taxol (high). […] FIG. 20c, Comparison of the neurotoxicity of different chemotherapy drugs.
Neurotoxicity of cancer chemotherapy drugs occurs frequently in clinic and often limit the dose of chemotherapy. We tested three chemotherapy drugs that are reported in clinic with low, moderate and high risks of neurotoxicity, using printed droplet arrays containing neural tissues (astrocytes and NSCs in Matrigel).

RFP-hNSCs = assay: Toxicity test of DPhPC on hNSCs; assay type: cell-based, human; settings: DPhPC at 100 μg/mL or 400 μg/mL in neural maintenance medium; three days of culture
Protocol: RFP-hNSCs were cultured in neural maintenance medium containing no lipid (control) or DPhPC at either 100 μg/mL or 400 μg/mL. Arrows indicate the formation of neural rosette-like structures under all conditions after three days of culture.

[3] = tested on: Astrocytes in droplet arrays; assay: Fluo-4 calcium live imaging of astrocytes in droplet arrays after KCl stimulation; assay type: cell-based, human; settings: KCl 60 mM
Protocol: FIG. 19a, human primary cortical astrocyte printed in an array. Astrocytes were printed at a cell density of 4×10^7 mL^−1 in Matrigel. Left: Calcein AM (CAM) staining of printed astrocytes at 2 days post printing. The dashed box indicates the area of the higher magnification image on the right (top two images in the middle). Top right row: higher magnification images of astrocyte printed in Matrigel (CAM staining image and the corresponding brightfield image) and image of astrocytes (brightfield with CAM staining) printed in agarose as the matrix. Bottom right row: immunostaining images of printed astrocytes with astrocyte markers vimentin (yellow) and GFAP (magenta). FIG. 19b, Spontaneous calcium fluctuations of astrocytes in printed droplet arrays. Left: Individual time-point frames of Fluo-4 calcium live imaging. Right: single-cell traces of the cells indicated by the colour-coded circles in the images (left panel). […] Proportions of astrocytes with spontaneous calcium fluctuations were measured at four conditions: 2D monolayer cell culture, and printed astrocyte, astrocyte-NPC, and astrocyte-MDA (a metastatic breast cancer cell line) droplet arrays. n>20 for all four conditions. *: P<0.05, **: P<0.01, ***: P<0.001 and ****: P<0.0001. […]

printed neural tissues = assay: Fluo-4 calcium imaging of printed neural tissues after KCl stimulation; assay type: cell-based, human; settings: KCl 60 mM, 65 days ppd
From the text: FIG. 3d-f show spontaneous calcium oscillations (FIG. 3d), single-cell traces (FIG. 3e) and correlation coefficient analysis (FIG. 3f) of printed neural tissues at 44 days ppd. The data reveal increased neural communication after a longer period of differentiation. […] Intensities are false-coloured according to the ‘fire’ Look Up Table of Fiji. […] Images are false-coloured as in FIG. 3g. Scale bars are all 100 μm.
Calcium imaging and correlation analysis. A Fluo-4 Direct™ calcium assay kit (F10471, Invitrogen) was used according to the manufacturer's instructions to measure calcium activities. Briefly, printed neural tissues were transferred to 48-well plates and incubated with NMM/Fluo-4 calcium imaging reagents (v:v, 1:1) for 1 h at 37° C. Both spontaneous and evoked calcium recordings were recorded at 37° C. by fluorescence confocal microscopy (Leica SP5) at 1 frame per 2 seconds for FIG. 3a, 1 frame per 15 seconds FIG. 3d and 1 frame per 1 second for FIG. 3g. Pre-processing and analysis of time-lapse calcium recordings were performed in MATLAB. […] Individual neuronal somata were manually selected as ROIs, and the pixel mask in the local area was refined using ICA-based de-mixing of fluorescent transients. ΔF/F0 at time t was calculated with a moving baseline as: […]

iPSCs derived NPCs = assay: Oil toxicity test using iPSCs derived NPCs; assay type: cell-based; settings: oil on top of medium of 2D cultured NPCs, 5 days; live (CAM)/dead (PI) staining on day 5
Protocol: 2D cultured NPCs were added with oil on top of medium and cultured for 5 days. Life (CAM, in green) and Dead (PI, in read) staining were conducted on day 5.
Bioreactors have been used in macro-scale to support biological active environment. However, nanoliter-sized bioreactors would offer the potential to study biological events with much small number of cells, and the potential application in high throughput assays. We firstly optimised the oil surrounding the nano-bioreactors, which plays a large role in the viability of the encapsulated neural tissues. […] The optimised conditions allow the growth of individual low-nanoliter sized neural tissue inside each nano-bioreactor, without interaction with cells in other nano-bioreactors. With differentiation medium, neural process outgrowth and neural migration were observed and assessed in nano-bioreactors. This technique have the potential for a low-cost HTS, as minimal cells and reagents are required. It also offers the potential application to study biological events where a small organised cluster of cells were involved, such as early stage embryogenesis and tumorigenesis.

O=c1[nH]cc(F)c(=O)[nH]1 [5-Fluorouracil]
reported neurotoxicity risk [1]: minor

N.N.O=C([O-])C1(C(=O)[O-])CCC1.[Pt+2] [Carboplatin]
reported neurotoxicity risk [1]: moderate | neurotoxicity against neural cells in printed neural tissue arrays ([2]; drugs added to culture medium the day after printing, assessed after a further 24 hrs, astrocytes:RFP-NPCs 3:1, n>25, P<0.05): higher toxicity against neural cells compared to 5-Fluorouracil

CC(C)CCCC(C)CCCC(C)CCCC(C)CC(=O)OC[C@H](COP(=O)([O-])OCC[N+](C)(C)C)OC(=O)CC(C)CCCC(C)CCCC(C)CCCC(C)C (stereo partly drawn) [DPhPC, 1,2-diphytanoyl-sn-glycero-3-phosphocholine]
toxicity of DPhPC on hNSCs (neural rosette-like structure formation vs no-lipid control) (RFP-hNSCs): No obvious differences

[Cl-].[K+] [KCl]
calcium response of astrocytes in droplet arrays to KCl stimulation [3]: responsive | calcium response of printed neural tissues to KCl (printed neural tissues): induced a rapid calcium transient in a cell; also recorded: evoked rapid Ca^2+ transients

CC(=O)O[C@H]1C(=O)[C@@]2(C)[C@H]([C@H](OC(=O)c3ccccc3)[C@]3(O)C[C@H](OC(=O)[C@H](O)[C@@H](NC(=O)c4ccccc4)c4ccccc4)C(C)=C1C3(C)C)[C@]1(OC(C)=O)CO[C@@H]1C[C@@H]2O [Taxol]
reported neurotoxicity risk [1]: high | neurotoxicity against neural cells in printed neural tissue arrays ([2]; human, 24 h): higher toxicity against neural cells compared to 5-Fluorouracil

CCCCCCCC/C=C\CCCCCCCC(=O)OCC(COC(=O)CCCCCCC/C=C\CCCCCCCC)OC(=O)CCCCCCC/C=C\CCCCCCCC [glyceryl trioleate]
oil toxicity to NPCs (iPSCs derived NPCs): not toxic
